Measurements as given in ChEMBL document CHEMBL1201862, “PubChem BioAssay data set” (2004).
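Grown in 96-well plates, cells were treated for 48 hours with each compound at five concentrations. Insufficient inhibition: endpoint recorded as highest concentration tested. GI50: concentration for 50% inhibition of growth.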 Activity calls are given as the source filed them. Cut-off read from the data, not from the text of the source: active = GI50 up to about 1.1 µM and inactive = higher.

Columns and labels:
Test in all cases: growth of human tumour cells (NCI), 48 h
[1] = tested on: 786-0
[2] = tested on: A549
[3] = tested on: Malme-3M
[4] = tested on: K562
[5] = tested on: SW-620
[6] = tested on: SK-MEL-2
[7] = tested on: M14
[8] = tested on: CCRF-CEM
[9] = tested on: SF-539
[10] = tested on: HL-60
[11] = tested on: TK-10
[12] = tested on: HT-29
[13] = tested on: UO-31
[14] = tested on: SN12C
[15] = tested on: COLO 205
[16] = tested on: HCT-116
[17] = tested on: SR

Structure (SMILES)	GI50 [1]	GI50 [2]	GI50 [3]	GI50 [4]	GI50 [5]	GI50 [6]	GI50 [7]	GI50 [8]	GI50 [9]	GI50 [10]	GI50 [11]	GI50 [12]	GI50 [13]	GI50 [14]	GI50 [15]	GI50 [16]	GI50 [17]
Clc1ccc(Cc2nc3ccccc3s2)c(Cl)c1	14.6 µM (inactive)	19.7 µM (inactive)	16.9 µM (inactive)	14.8 µM (inactive)	21.8 µM (inactive)	16.4 µM (inactive)	16.4 µM (inactive)	5.21 µM (inactive)	3.65 µM (inactive)	15.5 µM (inactive)	22.7 µM (inactive)	20.6 µM (inactive)	16.4 µM (inactive)	16.5 µM (inactive)	17 µM (inactive)	–	–
CNc1ccc([N+](=O)[O-])c2c(NCCCN(C)C)ccnc12	> 100 µM (inactive)	> 100 µM (inactive)	> 100 µM (inactive)	> 100 µM (inactive)	> 100 µM (inactive)	> 100 µM (inactive)	> 100 µM (inactive)	> 100 µM (inactive)	> 100 µM (inactive)	> 100 µM (inactive)	> 100 µM (inactive)	> 100 µM (inactive)	> 100 µM (inactive)	> 100 µM (inactive)	> 100 µM (inactive)	> 100 µM (inactive)	> 100 µM (inactive)
CCCCOCN/C(N)=N/C#N	33.9 µM (inactive)	> 100 µM (inactive)	> 100 µM (inactive)	73.6 µM (inactive)	18.2 µM (inactive)	> 100 µM (inactive)	> 100 µM (inactive)	–	> 100 µM (inactive)	> 100 µM (inactive)	> 100 µM (inactive)	> 100 µM (inactive)	> 100 µM (inactive)	> 100 µM (inactive)	38.3 µM (inactive)	> 100 µM (inactive)	19.6 µM (inactive)
O=[N+]([O-])c1cccc(C(O)/C(=N/Nc2ccccc2)C2Nc3ccc([N+](=O)[O-])cc3N=C2O)c1 (stereo unspecified)	> 100 µM (inactive)	41.2 µM (inactive)	95.9 µM (inactive)	30.5 µM (inactive)	49.3 µM (inactive)	> 100 µM (inactive)	42.1 µM (inactive)	81.8 µM (inactive)	13.2 µM (inactive)	10.8 µM (inactive)	> 100 µM (inactive)	50.9 µM (inactive)	27.5 µM (inactive)	> 100 µM (inactive)	61.1 µM (inactive)	> 100 µM (inactive)	–
CC(C)OCN1COCN/C1=N/C#N	98.6 µM (inactive)	> 100 µM (inactive)	> 100 µM (inactive)	> 100 µM (inactive)	18.3 µM (inactive)	> 100 µM (inactive)	> 100 µM (inactive)	–	> 100 µM (inactive)	> 100 µM (inactive)	> 100 µM (inactive)	78.3 µM (inactive)	> 100 µM (inactive)	> 100 µM (inactive)	20.8 µM (inactive)	> 100 µM (inactive)	> 100 µM (inactive)
COc1ccc(-c2cn3ccsc3n2)cc1	35.6 µM (inactive)	> 100 µM (inactive)	> 100 µM (inactive)	55.2 µM (inactive)	11.2 µM (inactive)	> 100 µM (inactive)	> 100 µM (inactive)	64 µM (inactive)	75.9 µM (inactive)	24.7 µM (inactive)	> 100 µM (inactive)	82.8 µM (inactive)	> 100 µM (inactive)	> 100 µM (inactive)	33.1 µM (inactive)	45.4 µM (inactive)	15.9 µM (inactive)
CCOC(=O)[C@@]12C(C)=CC(=O)O[C@]1(C)C1C(=O)NC(=O)C12 (stereo partly specified)	> 100 µM (inactive)	> 100 µM (inactive)	> 100 µM (inactive)	> 100 µM (inactive)	> 100 µM (inactive)	> 100 µM (inactive)	> 100 µM (inactive)	> 100 µM (inactive)	> 100 µM (inactive)	> 100 µM (inactive)	> 100 µM (inactive)	> 100 µM (inactive)	> 100 µM (inactive)	–	> 100 µM (inactive)	> 100 µM (inactive)	–
O=C(/C=C(\O)C(=O)O)/C=C(\O)c1ccccc1	> 100 µM (inactive)	> 4.65 µM (inactive)	–	> 4.65 µM (inactive)	> 4.65 µM (inactive)	> 4.65 µM (inactive)	> 100 µM (inactive)	> 4.65 µM (inactive)	–	> 4.65 µM (inactive)	> 4.65 µM (inactive)	> 4.65 µM (inactive)	–	> 4.65 µM (inactive)	> 4.65 µM (inactive)	> 4.65 µM (inactive)	> 100 µM (inactive)
Cc1nn(C)c(=O)c2nn(-c3ccccc3)c(C)c12	> 100 µM (inactive)	> 100 µM (inactive)	> 100 µM (inactive)	> 100 µM (inactive)	> 100 µM (inactive)	> 100 µM (inactive)	> 100 µM (inactive)	> 100 µM (inactive)	> 100 µM (inactive)	> 100 µM (inactive)	> 100 µM (inactive)	> 100 µM (inactive)	> 100 µM (inactive)	> 100 µM (inactive)	> 100 µM (inactive)	> 100 µM (inactive)	> 100 µM (inactive)
O=[N+]([O-])c1ccc(C2=Nc3ccccc3[S+]([O-])C(c3ccccc3)C2)cc1 (stereo unspecified)	17.5 µM (inactive)	27.9 µM (inactive)	44.8 µM (inactive)	10.9 µM (inactive)	23.1 µM (inactive)	34.7 µM (inactive)	20.2 µM (inactive)	15.1 µM (inactive)	20.2 µM (inactive)	16.9 µM (inactive)	27 µM (inactive)	19.1 µM (inactive)	16.7 µM (inactive)	23.6 µM (inactive)	19.7 µM (inactive)	–	–
c1ccc(C2N3CCCCC3[C@@H]3c4[nH]c5ccccc5c4CCN23)nc1 (stereo partly specified)	> 100 µM (inactive)	> 100 µM (inactive)	–	94 µM (inactive)	> 100 µM (inactive)	> 100 µM (inactive)	> 100 µM (inactive)	> 100 µM (inactive)	> 100 µM (inactive)	59.7 µM (inactive)	> 100 µM (inactive)	> 100 µM (inactive)	> 100 µM (inactive)	> 100 µM (inactive)	–	> 100 µM (inactive)	–
[N-]=[N+]=NC1C2CC3C4CC5CC3[C@H](C2)C(C5)C41 (stereo partly specified)	> 100 µM (inactive)	> 100 µM (inactive)	> 100 µM (inactive)	> 100 µM (inactive)	> 100 µM (inactive)	> 100 µM (inactive)	> 100 µM (inactive)	> 100 µM (inactive)	> 100 µM (inactive)	–	> 100 µM (inactive)	> 100 µM (inactive)	> 100 µM (inactive)	> 100 µM (inactive)	> 100 µM (inactive)	> 100 µM (inactive)	> 100 µM (inactive)
COC(=O)C1=C(c2ccc3c(c2)OCO3)OC(c2cc(OC)c(OC)c(OC)c2)C1 (stereo unspecified)	3.61 µM (inactive)	5.77 µM (inactive)	4.74 µM (inactive)	0.883 µM (active)	0.557 µM (active)	–	3.53 µM (inactive)	3.88 µM (inactive)	5.11 µM (inactive)	–	5.2 µM (inactive)	1.29 µM (inactive)	8.26 µM (inactive)	4.5 µM (inactive)	1.2 µM (inactive)	2.88 µM (inactive)	0.667 µM (active)
CN(C)/C=N\c1nc(=O)n(C2CCC(CO)O2)cc1F (stereo unspecified)	> 100 µM (inactive)	> 100 µM (inactive)	> 100 µM (inactive)	> 100 µM (inactive)	> 100 µM (inactive)	> 100 µM (inactive)	> 100 µM (inactive)	> 100 µM (inactive)	–	> 100 µM (inactive)	> 100 µM (inactive)	> 100 µM (inactive)	> 100 µM (inactive)	> 100 µM (inactive)	> 100 µM (inactive)	–	–
O=[N+]([O-])C1Cc2ccccc2OC1c1ccccc1 (stereo unspecified)	35.3 µM (inactive)	> 100 µM (inactive)	> 100 µM (inactive)	26.8 µM (inactive)	> 100 µM (inactive)	–	> 100 µM (inactive)	30.8 µM (inactive)	31.2 µM (inactive)	39.4 µM (inactive)	77.1 µM (inactive)	83.8 µM (inactive)	> 100 µM (inactive)	21.7 µM (inactive)	69 µM (inactive)	66.4 µM (inactive)	15.3 µM (inactive)
CC(=O)c1ccc(NC(=O)/C(Cc2ccccn2)=N/NC(=O)C[N+](C)(C)C)cc1	> 100 µM (inactive)	> 100 µM (inactive)	> 100 µM (inactive)	> 100 µM (inactive)	> 100 µM (inactive)	> 100 µM (inactive)	> 100 µM (inactive)	> 100 µM (inactive)	> 100 µM (inactive)	> 100 µM (inactive)	> 100 µM (inactive)	> 100 µM (inactive)	> 100 µM (inactive)	> 100 µM (inactive)	> 100 µM (inactive)	> 100 µM (inactive)	> 100 µM (inactive)
CC(C)OP(=O)(OC(C)C)/C(N)=N/Nc1ccc([N+](=O)[O-])cc1	> 100 µM (inactive)	76.2 µM (inactive)	> 100 µM (inactive)	77.6 µM (inactive)	> 100 µM (inactive)	> 100 µM (inactive)	> 100 µM (inactive)	98.2 µM (inactive)	> 100 µM (inactive)	58.3 µM (inactive)	27 µM (inactive)	–	61.8 µM (inactive)	> 100 µM (inactive)	> 100 µM (inactive)	86.3 µM (inactive)	> 100 µM (inactive)
O=C(Cc1nc2ccccc2s1)Nc1cccc(C(F)(F)F)c1	14.2 µM (inactive)	21 µM (inactive)	16.6 µM (inactive)	9.16 µM (inactive)	19.2 µM (inactive)	18.5 µM (inactive)	15.6 µM (inactive)	1.81 µM (inactive)	18.8 µM (inactive)	3.59 µM (inactive)	21.2 µM (inactive)	17.1 µM (inactive)	14.5 µM (inactive)	16.1 µM (inactive)	17 µM (inactive)	–	–
